Measured values taken from patent US10988465B2, “CXCR4 inhibitors and uses thereof” (X4 Pharmaceuticals, Inc., priority 2016, dated 2021).

Columns and labels:
[1] = target: T1, CXCR-4 transfected U87 cell line (U87.CXCR4) (Homo sapiens, UniProt P61073); test: Intracellular CXCL-12-induced calcium mobilization assay (FLIPR); type: cell-based; conditions: U87.CXCR4 cells; CXCL-12 25-50 ng/mL; compound added 15 min before; read-out: IC50 CXCL-12 Ca^2+ flux U87.CXCR4+
T1 construct: expressed in transfected cells; host or cells: U87 (U87.CXCR4)
T1 sequence (P61073 whole entry): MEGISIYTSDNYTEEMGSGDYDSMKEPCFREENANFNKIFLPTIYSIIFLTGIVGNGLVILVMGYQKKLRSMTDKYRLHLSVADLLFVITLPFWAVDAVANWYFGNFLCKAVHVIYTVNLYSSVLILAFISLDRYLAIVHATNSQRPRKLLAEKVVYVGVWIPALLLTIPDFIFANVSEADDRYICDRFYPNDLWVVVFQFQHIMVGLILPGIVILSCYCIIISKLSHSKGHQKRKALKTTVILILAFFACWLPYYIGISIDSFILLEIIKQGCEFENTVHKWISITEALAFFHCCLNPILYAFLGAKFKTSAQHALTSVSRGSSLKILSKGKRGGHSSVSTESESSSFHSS
Procedure: Example 36: REGA Screening Assay
Intracellular CXCL-12-Induced Calcium Mobilization Assay
Intracellular calcium mobilization induced by chemokines or chemokine-derived peptides were evaluated using a calcium responsive fluorescent probe and a FLIPR system. The CXCR-4 transfected U87 cell line (U87.CXCR4) cells were seeded in gelatine-coated black-wall 96-well plates at 20,000 cells per well and incubated for 12 hours. Cells were then loaded with the fluorescent calcium probe Fluo-2 acetoxymethyl at 4 μM final concentration in assay buffer (Hanks' balanced salt solution with 20 mM HEPES buffer and 0.2% bovine serum albumin, pH 7.4) for 45 min at 37° C. The intracellular calcium mobilization induced by the CXCL-12 (25-50 ng/mL) was then measured at 37° C. by monitoring the fluorescence as a function of time in all the wells simultaneously using a fluorometric imaging plate reader (FLIPR Tetra, Molecular Devices).

[2] = target: T2, Jurkat cells expressing CXCR4 (Homo sapiens, UniProt P61073); test: Chemokine (CXCL12-AF647) binding inhibition assay; conditions: CXCL12-AF647 25 ng/mL, read-out: IC50 CXCL-12 binding Jurkat
T2 construct: endogenous in cells; host or cells: Jurkat
T2 sequence (P61073 whole entry): as above
Procedure: Chemokine (CXCL12-AF647) Binding Inhibition Assay
Jurkat cells expressing CXCR4 were washed once with assay buffer (Hanks' balanced salt solution with 20 mM HEPES buffer and 0.2% bovine serum albumin, pH 7.4) and then incubated for 15 min at room temperature with the test compounds diluted in assay buffer at dose-dependent concentrations. Subsequently, CXCL12-AF647 (25 ng/mL) was added to the compound-incubated cells. The cells were incubated for 30 min at room temperature. Thereafter, the cells were washed twice in assay buffer, fixed in 1% paraformaldehyde in PBS, and analyzed on the FL4 channel of a FACSCalibur flow cytometer equipped with a 635-nm red diode laser (Becton Dickinson, San Jose, Calif., USA).
The percentages of inhibition of CXCL12-AF647 binding were calculated according to the formula: [1−((MFI−MFINC)/(MFIPC−MFINC))]×100 where MFI is the mean fluorescence intensity of the cells incubated with CXCL12-AF647 in the presence of the inhibitor, MFINC is the mean fluorescence intensity measured in the negative control (i.e., autofluorescence of unlabeled cells), and MFIPC is the mean fluorescence intensity of the positive control (i.e., cells exposed to CXCL12-AF647 alone).

in vitro = conditions: human, Caco-2, pH 7.4
Procedure: Example 37: Caco-2 Permeability Assay
The goal of this assay was to evaluate the intestinal absorption potential of drug candidates using Caco-2 cell lines.
HBSS buffer with 0.3% DMSO and 5 μM LY: add 150 μL DMSO and 50 μL LY (5 mM) into 50 ml HBSS buffer (pH 7.4).
HBSS buffer with 0.1% DMSO and 5 μM LY: add 50 μL DMSO and 50 μL LY (5 mM) into 50 mL HBSS buffer (pH 7.4).
HBSS buffer with 0.3% DMSO: add 150 μL DMSO into 50 ml HBSS buffer (pH 7.4).
HBSS buffer with 0.1% DMSO: add 50 μL DMSO into 50 ml HBSS buffer (pH 7.4).
Prepare HBSS buffer with 0.4% DMSO: add 200 μL DMSO into 50 ml HBSS buffer (pH 7.4).
Prepare HBSS buffer with 0.4% DMSO and 5 μM LY: add 200 μL DMSO and 50 μL LY (5 mM) into 50 ml HBSS buffer (pH 7.4).
4. Measure TEER Take cell culture plate out of incubator, wash the cell monolayers with HBSS buffer, and then measure TEER values at Rm temperature. 5. Centrifuge Centrifuge the compound solution (from step 3) at 4000 rpm for 5 min before loading to donor chambers. 6. Dosing Add solution based on the volumes listed in the following table (make sure to take extra 100 μL of donor sample for T0 as Backup).
7. Apical LYT0 samples To determine LY concentration in the apical chember, take 100 μL sample from apical chambers into an opaque plate for LYT0. 8. Prewarm Prewarm apical and basolateral plates at 37° C. for about 5 min, then begin transport by placing the apical plate onto basolateral plate. 9. Incubation Keep the plates in incubator at 37° C. for 90 min. 10. Standard Curve preparation
11. Transport termination Separate the apical plate from the basolateral plate after 90-min incubation.
Receiver sample: 60 μL of receiver sample+60 μL ACN with IS (Osalmid or Imipramine)
Study details: Test concentration 10 μM
Test systems: Caco-2/HBSS solution
Incubation conditions: 0, 90 min at 37° C.
Sample size: Duplicates (n=2)
Bioanalytical method: LC-MS/MS
For Millicell-24 Cell Culture Plates: surface area of the membrane=0.7 cm^2, VA=0.8 mL (A-to-B) or 0.4 mL (B-to-A)
1. Papp values were calculated based on calculated concentrations.
The compound numbers correspond to the compound numbers in Table 1.

SMILES | IC50 [1] | IC50 [2] | Papp A→B at 90 min, 10 μM (in vitro) | Papp B→A at 90 min, 10 μM (in vitro) | efflux ratio at 90 min, 10 μM (in vitro)
CN1CCN(c2cccc3nc([C@H]4CCC[C@@H](c5ncccc5C#N)N4C)[nH]c23)CC1 [I-10, 2-((2S,6R)-1-methyl-6-(7-(4-methylpiperazin-1-yl)-1H-benzo[d]imidazol-2-yl)piperidin-2-yl)nicotinonitrile] | ≥ 1000 nM | 100 to 1000 nM | 10 to 30 ×10⁻⁶ cm/s | 10 to 30 ×10⁻⁶ cm/s | 0.1 to 10
Cc1cccnc1[C@@H]1CCC[C@H](c2nc3c(N4CCN(C)CC4)cccc3n2C)N1 [I-141] | ≥ 1000 nM | ≥ 1000 nM | 10 to 30 ×10⁻⁶ cm/s | 10 to 30 ×10⁻⁶ cm/s | 0.1 to 10
Cc1cccnc1[C@@H]1CCC[C@H](c2nc3cccc(N4CCN5CCCC5C4)c3[nH]2)N1 (stereo partly shown) [I-126] | 0.01 to 100 nM | 0.01 to 100 nM | 0.1 to 10 ×10⁻⁶ cm/s | 10 to 30 ×10⁻⁶ cm/s | 0.1 to 10
Cc1cccnc1[C@@H]1CCC[C@H](c2nc3ccccc3n2CCCN(C)C)N1C [I-5, N,N-dimethyl-3-(2-((2R,6S)-1-methyl-6-(3-methylpyridin-2-yl)piperidin-2-yl)-1H-benzo[d]imidazol-1-yl)propan-1-amine] | 0.01 to 100 nM | 0.01 to 100 nM | 0.1 to 10 ×10⁻⁶ cm/s | 0.1 to 10 ×10⁻⁶ cm/s | 0.1 to 10
Cc1cccnc1[C@@H]1CCC[C@H](c2nc3cccc(N4CC5CCC(C4)N5C)c3[nH]2)N1 [I-118] | 0.01 to 100 nM | 0.01 to 100 nM | 0.1 to 10 ×10⁻⁶ cm/s | > 30 ×10⁻⁶ cm/s | 10 to 30
Cc1cccnc1[C@@H]1CCC[C@H](c2nc3cccc(N4C5CCC4CNC5)c3[nH]2)N1C [I-99] | 0.01 to 100 nM | 0.01 to 100 nM | 0.1 to 10 ×10⁻⁶ cm/s | > 30 ×10⁻⁶ cm/s | > 30
Cc1cccnc1[C@@H]1C[C@H](O)C[C@H](c2nc3cccc(N4CCN(C)CC4)c3[nH]2)N1C [I-100] | 0.01 to 100 nM | 0.01 to 100 nM | 0.1 to 10 ×10⁻⁶ cm/s | 10 to 30 ×10⁻⁶ cm/s | > 30
CCN1[C@@H](c2nc3ccccc3n2CC2CCN(C)CC2)CCC[C@H]1c1ncccc1C [I-25, 2-((2R,6S)-1-ethyl-6-(3-methylpyridin-2-yl)piperidin-2-yl)-1-((1-methylpiperidin-4-yl)methyl)-1H-benzo[d]imidazole] | 0.01 to 100 nM | 0.01 to 100 nM | 0.1 to 10 ×10⁻⁶ cm/s | 10 to 30 ×10⁻⁶ cm/s | 0.1 to 10
Cc1c(Cl)ccnc1[C@@H]1CCC[C@H](c2nc3cccc(N4CCN(C)CC4)c3[nH]2)N1 [I-140] | 0.01 to 100 nM | 0.01 to 100 nM | 0.1 to 10 ×10⁻⁶ cm/s | 10 to 30 ×10⁻⁶ cm/s | 0.1 to 10
CN1CCN(c2cccc3nc([C@H]4CCC[C@@H](c5nccn6cccc56)N4C)[nH]c23)CC1 (stereo in doubt) [I-90] | 100 to 1000 nM | 0.01 to 100 nM | 10 to 30 ×10⁻⁶ cm/s | 10 to 30 ×10⁻⁶ cm/s | 0.1 to 10
Cc1cccnc1[C@@H]1CCC[C@H](c2nc3ccccc3n2CCc2ccccn2)N1C [I-8, 2-((2R,6S)-1-methyl-6-(3-methylpyridin-2-yl)piperidin-2-yl)-1-(2-(pyridin-2-yl)ethyl)-1H-benzo[d]imidazole] | ≥ 1000 nM | 100 to 1000 nM |  |  | 
Cc1cccnc1[C@@H]1CCC[C@H](c2nc3cccc(Oc4ccncc4)c3[nH]2)N1C [I-78] | ≥ 1000 nM | ≥ 1000 nM |  |  | 
CN1CCN(c2cccc3nc([C@H]4CCC[C@@H](c5ncccc5Cl)N4)n(C)c23)CC1 [I-124] | 0.01 to 100 nM | 0.01 to 100 nM |  |  | 
COCCc1ccc(OCC(O)CNC(C)C)cc1 (stereo not shown) [Metoprolol, reference compound] |  |  | > 10 ×10⁻⁶ cm/s | > 10 ×10⁻⁶ cm/s | 
Cc1cccnc1[C@@H]1CCC[C@H](c2nc3cccc(Oc4cccnc4)c3[nH]2)N1C [I-77] | ≥ 1000 nM | 100 to 1000 nM |  |  | 
CCN1CCN(c2cccc3nc([C@H]4CCC[C@@H](c5ncccc5C(F)(F)F)N4C)[nH]c23)CC1 (relative stereo) [I-59] | ≥ 1000 nM | 0.01 to 100 nM |  |  | 
Cc1cccnc1[C@@H]1CCCC(c2nccn2CCCc2ccccn2)N1 (stereo in doubt) [I-178] | ≥ 1000 nM | 100 to 1000 nM |  |  | 
Cc1cccnc1[C@@H]1CCC[C@H](c2nc3ccccc3n2CCn2ccnc2)N1C [I-6, 1-(2-(1H-imidazol-1-yl)ethyl)-2-((2R,6S)-1-methyl-6-(3-methylpyridin-2-yl)piperidin-2-yl)-1H-benzo[d]imidazole] | 100 to 1000 nM | 0.01 to 100 nM |  |  | 
Cc1cccnc1[C@@H]1CCC[C@H](c2nc3ccccc3n2CCCCN)N1C [I-4, 4-(2-((2R,6S)-1-methyl-6-(3-methylpyridin-2-yl)piperidin-2-yl)-1H-benzo[d]imidazol-1-yl)butan-1-amine] | 0.01 to 100 nM | 0.01 to 100 nM |  |  | 
COCCCn1c([C@H]2CCC[C@@H](c3ncccc3C)N2C)nc2ccccc21 [I-157] | ≥ 1000 nM | 0.01 to 100 nM |  |  | 
Cc1cccnc1[C@@H]1CCC[C@H](c2nc3ccccc3n2CCCO)N1 [I-156] | ≥ 1000 nM | 100 to 1000 nM |  |  | 
Cc1cccc(F)c1[C@@H]1CCC[C@H](c2nc3cccc(N4CCN(C)CC4)c3[nH]2)N1C [I-138] | ≥ 1000 nM | ≥ 1000 nM |  |  | 
Cc1cccnc1[C@@H]1CCC[C@H](c2nc3ccccc3n2CCCO)N1C [I-20, 3-(2-((2R,6S)-1-methyl-6-(3-methylpyridin-2-yl)piperidin-2-yl)-1H-benzo[d]imidazol-1-yl)propan-1-ol] | 100 to 1000 nM | 0.01 to 100 nM |  |  | 
